The source of these data is patent US5574015A, “Isosteric antiherpes peptide derivatives” (priority 1994, dated 1996).

This experiment has as its system HSV-2. Put plainly: Inhibition of Herpes Simplex Virus (HSV-2) replication in cell culture. The experiment is classed as cell-based, HSV-2 strain HG-52. The protocol: Inhibition of Herpes Simplex Virus (HSV-2). Replication in Cell Culture
BHK-21/C13 cells (ATCC CCL 10) are incubated for two days in 150 cm^2 T-flasks (1.5×10^6 cells/flask) with alpha-MEM medium (Gibco Canada Inc., Burlington, Ontario, Canada) supplemented with 8% (v/v) fetal bovine serum (FBS, Gibco Canada Inc.). The cells are trypsinized and then transferred to fresh media in a 24 well plate to give 2.5×10^5 cells in 750 μL of media per well. The cells are incubated at 37° for a period of 6 h to allow them to adhere to the plate. Thereafter, the cells are washed once with 500 μL of alpha-MEM supplemented with 0.5% (v/v) FBS and then incubated with 750 μL of the see media (low serum) for 3 days. After this period of serum starvation, the low serum medium is removed and the cells are incubated in 500 μL of BBMT for 2 to 3 hours. {BBMT medium is described by P. Brazeau et al., Proc. Natl. Acad. Sci. USA, 79, 7909 (1982).} Thereafter, the cells are infected with HSV-2 (multiplicity of infection=0.02 PFU/cell) in 100 μL of BBMT medium. (Note: The HSV-2 used was strain HG-52, see Y. Langelier and G. Buttin, J. Gen. Virol., 57, 21 (1981); the virus was stored at -80°) Following 1 h of virus adsorption at 37°, the media is removed and the cells are washed with BBMT (3×250 μL). The cells in each well are incubated with or without (control) appropriate concentrations of the test agent dissolved in 200 μL of BBMT medium. After 29 h of incubation at 37°, the infected cells are harvested by first freezing the plate at -80°, followed by thawing. The cells in each well are scraped off the surface of the well with the help of the melting ice fragments. After complete thawing, the cell suspensions are collected and each well is rinsed with 150 μL of BBMT medium. The viral sample (suspension plus washing) is sonicated gently for 4 min at 4°. Cell debris are removed by centrifugation (1000 times gravity for 10 minutes at 4°). The supernatant is collected and stored at -80° until determination of viral titer.
Viral titration was performed by a modification of the colorimetric assay method of M. Langlois et al., Journal of Biological Standardization, 14, 201 (1986).
More specifically, in a similar manner as described above, BHK-21/C13 cells are trypsinized and transferred to fresh media in a 96 well microtiter plate to give 20,000 cells in 100 μL of media per well. The cells in the prepared plate are incubated at 37° for 2 h. During that time, the viral sample is thawed and sonicated gently for 15 seconds, and log dilutions of the sample are prepared (1/5 sequential: 50 μL of the sample plus 200 μL of BBMT medium, sequential dilutions being done with a multichannel pipette.
On completion of the above 2 hour incubation of the BHK-21/C13 cells, the media is replaced with alpha-MEM medium supplemented with 3% (v/v) FBS. The cells are now ready to be infected with the various sample dilutions of virus. Aliquots (50 μL) of the various dilutions are transferred into the appropriate wells of the plate. The resulting infected cells are incubated for 2 days at 37°. Then 50 μL of a 0.15% (v/v) solution of neutral red dye in Hank's Balanced Salt Solution (pH 7.3, Gibco Canada Inc.) is added to each well. The prepared plate is incubated for 45 min at 37°. Medium from each well is then aspirated and the cells are washed once with 200 μL of Hank's Balanced Salt Solution. […]

Where [1] appears, read: Table II, BHK-21/C13 cells, 29 h incubation, 50% inhibition of virus replication.
The mark [2] stands for this setting: Table V, cell culture assay of example 11.

As for `Nc1nc2c(ncn2COCCO)c(=O)[nH]1` [acyclovir, reference compound], the EC50 worked out at 1.4 µM (Human alphaherpesvirus 2, Table III, acyclovir + 2 μM of peptide (title peptide of example 6)); 0.9 µM (Human alphaherpesvirus 2, Table III, acyclovir + 4 μM of peptide (title peptide of example 6)); 0.9 µM (Human alphaherpesvirus 2, Table III, acyclovir + 6 μM of peptide (title peptide of example 6)); 0.8 µM (Human alphaherpesvirus 2, Table III, acyclovir + 8 μM of peptide (title peptide of example 6)); 0.42 µM (Human alphaherpesvirus 2, Table III, acyclovir + 10 μM of peptide (title peptide of example 6)). Also, the “synergism by the isobole method” value (combination of acyclovir and title peptide of example 6, FIG. 1) is recorded as “positive result”. The “action of the combination of acyclovir and the peptide versus acyclovir alone” value (combinations with title peptide of example 6, EC50's significantly lower than acyclovir alone) is recorded as “synergistic action”.

Under setting [1], “Et2 CHNHC(O)--Tbg--CH2 --(R)-CH(CH2 C(O)--CMe3)C(O)--Asp(cyPn)--NHCH2 CMe3” registered an EC50 of 56 µM.

In the case of “Et2 CHNHC(O)--Tbg--CH2 --(R)-CH{CH2 C(O)--(cyclopentyl)}C(O)--Asp(cyPn)--NHCH2 CMe3”, the EC50 under setting [1] was determined as 50 µM.

In the case of “Et2 CHNHC(O)--Tbg--CH2 --(S)-CH{CH2 C(O)--(pyrrolidino)}C(O)--Asp(cyPn)--γMeLeucinol”, under setting [1], the EC50 was 200 µM.

For the setting “Table IV, cell culture assay of example 11”, “Me(CH2 =CH--CH2)2 CNHC(O)-Tbg-CH2 --(R)--CH(CH2 C(O)CMe3)C(O)-Asp(cyPn)-NHCH2 CMe3 [Me(CH2 =CHCH2)2 --CNHC(O), NHCH2 CMe3]” returned a 50% effective concentration (EC50) of 30 µM.

For “PhCH2 CH2 C(O)--(N--Me)Val--Tbg--CH2 --(R)-CH(CH2 C(O)CMe3)C(O)--Asp(cyPn)--γMeLeu--NH2”, under setting [1], the half-maximal effective concentration (EC50) came to 60 µM.

“PhCH2 CH2 C(O)--(N--Me)Val--Tbg--CH2 --(R)-CH(CH2 C(O)CMe3)C(O)--Asp(cyPn)--γMeLeu--OH”: the EC50 under setting [1] was 65 µM.

As for “PhCH2 CH2 C(O)--(N-Me)Val-Tbq-CH2 --(R)--CH(CH2 C(O)CMe3)C(O)-Asp(cyPn)-γMeLeucinol [Title Compound of Example 6]”, the half-maximal effective concentration (EC50) came to 15 µM under setting [1] and 19 µM (Table III, agent alone, BHK-21/C13 cells).

Compound “Pr2 CHNHC(O)--NH--(S)-CH(CMe2 Et)--C(O)--CH2 --(R)-CH(CH2 C(O)CMe3)C(O)--Asp--(cyPn)--NH--(R)-CH(Me)CMe3” had a concentration giving a half-maximal response (EC50) under setting [2] of 13 µM.

“Pr2 CHNHC(O)--Tbg--CH2 --(R)-CH(CH2 --C(O)CHMe2)C(O)--Asp(cyPn)--NHCH2 CMe3”: under setting [2], a half-maximal response (EC50) required 39 µM.

In turn, “Pr2 CHNHC(O)--Tbg--CH2 --(R)-CH(CH2 --C(O)CMe2 Et)C(O)--Asb(cyPn)--NHCH2 --CMe3” showed an EC50 under setting [2] of 33 µM.

Compound “Pr2 CHNHC(O)--Tbg--CH2 --(R)-CH(CH2 --C(O)CMe3)C(O)--Asp{(R)-Pr}--NHCH2 CMe3” registered an EC50 under setting [2] of 46 µM.

For the compound “Pr2 CHNHC(O)--Tbg--CH2 --(R)-CH(CH2 --C(O)CMe3)C(O)--Asp{(R)-allyl}--NHCH2 CMe3”, a half-maximal response under setting [2] (EC50) required 62 µM.

“Pr2 CHNHC(O)--Tbg--CH2 --(R)-CH(CH2 C(O)--CMe3)C(O)--Asp(cyPn)--NHCH2 CMe3”: a half-maximal effect under setting [1] (EC50) was put at 24 µM.

“Pr2 CHNHC(O)--Tbg--CH2 --(R)-CH(CH2 C(O)--CMe3)C(O)--Asp(cyPn)--γMeLeucinol” registered an EC50 under setting [1] of 30 µM.

In turn, “Pr2 CHNHC(O)--Tbg--CH2 --(R)-CH--(CH2 C(O)CH2 CMe3)C(CF)--Asp(cyPn)--Leu--OH” yielded an EC50 under setting [2] of 80 µM.

For the compound “Pr2 CHNHC(O)--Tbg--CH2 --(R)-CH{CH2 --C(O)--(1-methylcyclopentyl)}C(O)--Asp(cyPn)--NHCH2 CMe3”, under setting [2], the EC50 was found to be 35 µM.

“Pr2 CHNHC(O)--Tbg--CH2 --(R)-CH{CH2 --C(O)--(cyclobutyl)}C(O)--Asp(cyPn)--NHCH2 CMe3” returned an EC50 under setting [2] of 46 µM.

With “Pr2 CHNHC(O)--Tbg--CH2 --(R)-CH{CH2 --C(O)--(cyclohexyl)}C(O)--Asp(cyPn)--NHCH2 CMe3”, under setting [2], the concentration giving a half-maximal response (EC50) worked out at 61 µM.

“Pr2 CHNHC(O)--Val--CH2 --(R)-CH(CH2 --C(O)CMe3)C(O)--Asp(cyPn)--NH--(R)-CH(Me)CMe3”: under setting [2], the EC50 was 37 µM.

By EC50 is commonly meant the concentration giving half of the maximal effect.
